From PubChem BioAssay (NCI)
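Growth conditions: 96-well plates. Treatment: test compound, 48 hours, 5 concentrations. Analysis: linear interpolation between bracketing concentrations; unreached endpoints set to highest concentration. At the GI50, growth is halved. TGI: concentration producing complete growth inhibition.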

Tests used:
Experiment in all cases: inhibition of tumour cell growth, NCI panel, 48 h
[1] = system: MOLT-4 leukemia
[2] = system: MDA-MB-231 breast
[3] = system: OVCAR-5 ovarian
[4] = system: SK-OV-3 ovarian
[5] = system: A498 renal
[6] = system: K-562 leukemia
[7] = system: U251 CNS
[8] = system: RPMI-8226 leukemia
[9] = system: SF-295 CNS
[10] = system: NCI-H23 lung

| SMILES | GI50 [1] [µM] | TGI [1] [µM] | GI50 [2] [µM] | TGI [2] [µM] | GI50 [3] [µM] | TGI [3] [µM] | GI50 [4] [µM] | TGI [4] [µM] | GI50 [5] [µM] | TGI [5] [µM] | GI50 [6] [µM] | TGI [6] [µM] | GI50 [7] [µM] | TGI [7] [µM] | GI50 [8] [µM] | TGI [8] [µM] | GI50 [9] [µM] | TGI [9] [µM] | GI50 [10] [µM] | TGI [10] [µM] |
| --- | --- | --- | --- | --- | --- | --- | --- | --- | --- | --- | --- | --- | --- | --- | --- | --- | --- | --- | --- | --- |
| Cc1cc(C)nc(SC2=C(Nc3cccc(Cl)c3)C(=O)N(Cc3ccccc3)C2=O)n1 | > 170 | > 170 | > 170 | > 170 | > 170 | > 170 | > 170 | > 170 | > 170 | > 170 | 5.25 | > 170 | > 170 | > 170 | > 170 | > 170 | > 170 | > 170 | > 170 | > 170 |
| COc1ccc(F)cc1C(=O)c1cnc(NC2CCN(S(C)(=O)=O)CC2)nc1N | 2.66 | > 19 | 2.49 | > 25 | 1.4 | > 14.7 | 8.82 | > 25 | 3.22 | 8.06 | 6.25 | > 25 | 1.07 | > 19.6 | 3.27 | 13.1 | 1.68 | > 15.5 | 2.97 | 16.7 |
| Cc1ccc(S(=O)(=O)n2cc(C(=O)C(=O)Nc3ccncc3)c3ccccc32)cc1 | 1.77 | > 76.5 | 5.92 | > 100 | 8.19 | > 100 | 19.6 | 71.2 | 4.11 | 77.6 | 0.522 | > 100 | 1.4 | > 56.1 | 1.45 | > 100 | 1.67 | 9.57 | 0.556 | > 60.7 |
